Here are results for two molecules from patent US12551480B2, “Treatment using EYP001” (ENYO PHARMA, priority 2019, dated 2026).

For series [1] the following is noted: human, in vivo.
In series [2] the test system is HBV (plasma HBsAg). Description: Plasma HBsAg change from baseline in patients with chronic Hepatitis B infection, 4 weeks. The class given is in vivo, human. Conditions: 400 mg QD vs 200 mg BID, chronic Hepatitis B patients (FIG. 3). The protocol:
FIG. 3: Plasma HBsAg (Log 10 IU/mL) change from baseline in patients with chronic Hepatitis B infection. Patients received during 4 weeks either Placebo (n=8), EYP001 200 mg BID (n=8) or EYP001 400 mg QD (n=8). Values expressed as mean; error bar is SD. * p<0.05 vs baseline.
Patients chronically infected with HBV underwent a 4-week treatment as either daily oral FXR agonist EYP001 monotherapy or placebo or entecavir (ETV) in Part A of the study (n=48) or in combination with IFN (Part B, n=23, weekly sub-cutaneous injections of pegylated IFNα2a, PEG-IFN). Overall 15 (30%) patients developed pruritus related to EYP001, a well-known TEAE with FXR agonist, the mechanism of which however is poorly understood.

Series [3] can be described thus: Study EYP001-202 Phase 2a in NASH patients: pruritus intensity on Visual Analog Scale, safety and tolerance. The class given is in vivo, human. The protocol:
Values are AUC least square means (error bars=SE). AUC=area under the concentration-time curve; BID=twice daily; QD=once daily. * p<0.05 versus Placebo.
(§1) EYP001a is an investigational agonist of the FXR, a key regulator of bile, lipid, and glucose metabolism. […] Study EYP001-202 is a Phase 2a, 2-part study conducted to determine the efficacy and safety profiles of different doses and dosing regimens of EYP001 (100 mg twice daily [BID] and 200 mg once daily [QD]) versus placebo on LFC (liver fat content) from baseline to Week 12 in patients with NASH. An interim analysis on 24 patients enrolled in Part A Safety Run-in Cohort focused on safety, tolerance and key efficacy results.
VAS (Visual Analog Score) results were the followings: 100 mg BID group (mean change from baseline ranged from 3.34 on Day 7 to 6.84 on Day 21), and the 200 mg QD group (mean change from baseline ranged from 3.03 on Day 28 to 3.47 on Day 56).
The efficacy was shown with a significant, clinically relevant LFC reduction from baseline. However, tolerance was affected due to pruritus events causing premature terminations. The BID regimen less well tolerated compared to QD regimen. In addition, a higher efficacy is associated to the QD regimen in comparison to the BID.

A short description of series [4]: Study EYP001-202 Phase 2a in NASH patients: liver fat content (LFC) change from baseline to Week 12 by MRI-PDFF. The class given is in vivo, human. The protocol:
FIG. 2: Absolute Liver Fat Content Change (%) from baseline assessed by MRI-PDFF in NASH patients treated during 12 weeks with EYP001 100 mg BID (n=4) or EYP001 200 mg QD (n=3) or Placebo (n=5). Values expressed as means; error bar is SE. #p=0.07 vs baseline. The ------- line corresponds to a 5% clinical meaningful reduction. Analysis of covariance (ANCOVA) model with change from baseline as the dependent variable and baseline Liver Fat Content as a covariate and treatment (pooled EYP001 and Placebo BID) and stratification factors—statin use and T2DM status at screening as factors.
as §1
The primary efficacy endpoint of LFC reduction was met.

A short description of series [5]: NASH rodent model. The class given is in vivo.
For series [6] the following is noted: clinical trials of obeticholic acid (PBC, NASH); cited from earlier work.

On to `O=C(O)c1cc2c(Cl)c(N3CCN(S(=O)(=O)c4c(Cl)cccc4Cl)CC3)ccc2o1` [EYP001], for which, in series [1], the “frequency of pruritus with QD dosing compared to BID regimens” value is recorded as “up to four times less frequent pruritus”. In addition, in series [1] (4 weeks), the “any of above Pruritus related MEDRA (% of patients)” value was determined as 27%, the “n = any of above Pruritus related MEDRA (number of patients)” value is reported as 9, the “none of above (% of patients without pruritus)” value was 73% and the “none of above (number of patients without pruritus)” value was 24. Besides, in series [1] (4 weeks), the “patients who developed pruritus related to EYP001 (%)” value is listed as 30% and the “patients who developed pruritus related to EYP001 (number)” value came out at 15. Further, the “plasma HBsAg change from baseline, efficacy of regimens compared” value in series [2] was “better efficacy”. Also, in series [3] (NASH patients, 200 mg QD vs 100 mg BID (FIG. 1)), the “tolerance in VAS analysis (AUC over 12 weeks)” value is given as “better tolerance”. Also, in series [3] (male and female F2-F3 NASH patients, 100 mg BID and 200 mg QD), the “serious AEs” value is “no serious AEs”. In series [4] (200 mg QD group compared to 100 mg BID group, 12 weeks (FIG. 2)), the “LFC reduction, regimens compared” value is on record as “more pronounced effect”. The “LFC reduction, difference from placebo” value in series [4] (EYP001 groups pooled (100 mg BID and 200 mg QD), baseline to Week 12, p=0.04, absolute LFC change (%) by MRI-PDFF) is given as 8.62. Also, the “effect on liver steatosis, inflammation, apoptosis and fibrosis” value in series [5] was “reduced liver steatosis, inflammation, apoptosis, and fibrosis”.
For the molecule `CC[C@H]1[C@@H](O)[C@@H]2[C@H](CC[C@]3(C)[C@@H]([C@H](C)CCC(=O)O)CC[C@@H]23)[C@@]2(C)CC[C@@H](O)C[C@@H]12` [obeticholic acid], the pruritus rates entry in series [6] was “up to 51%”.
